Patent publication US9523100B2, “Pesticidal compositions and related methods” (DOW AGROSCIENCES LLC, priority 2013, dated 2016)
Where two headings read alike, the source gives them in different places.

Key:
[1] = tested on: Sweetpotato Whitefly-Crawler (WF) (Bemisia tabaci) (BEMITA); test: Insecticidal test for Sweetpotato Whitefly-Crawler (WF) in foliar spray assay on cotton plants; format: in vivo; details: 216 h, read-out: WF 200 ppm, % Control (or Mortality) rating
In short: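 Cotton plants carrying 200–400 whitefly eggs sprayed to run-off on both leaf surfaces at 200 ppm (acetone/0.025% Tween 20), four plants per treatment. After 9 days at about 25 °C, live 3rd–4th instar nymphs counted; Abbott-corrected percent control versus solvent check.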

[2] = tested on: Green Peach Aphid (GPA) (Myzus persicae) (MYZUPE); test: Bioassay for Green Peach Aphid (GPA), foliar spray on cabbage seedlings; format: in vivo; details: 72 h, read-out: GPA 200 ppm, % Control (or Mortality) rating
In short: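 Cabbage seedlings infested with 20-50 GPA (wingless adults and nymphs) one day before spraying to runoff with 200 ppm compound; four pots per treatment. Live aphids counted after three days at ~25° C; percent control by Abbott's correction against solvent-sprayed plants.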

[3] = 200 ppm foliar spray on cotton plants, graded after 9 days, Abbott corrected % control
[4] = 200 ppm foliar spray on cabbage seedlings, graded after three days, Abbott corrected % control

Compound | mortality at 200 ppm [1, 3] | mortality at 200 ppm [2, 4] | mortality at 200 ppm ([1]; foliar) | mortality at 200 ppm ([2]; foliar)
O=C(CCC(=O)N(CC1CC1)c1cn(-c2cccnc2)nc1Cl)N1CCCC1 [Compound F95, N-(3-Chloro-1-(pyridin-3-yl)-1H-pyrazol-4-yl)-N-(cyclopropylmethyl)-4-oxo-4-(pyrrolidin-1-yl)butanamide] | 0 to 80% | 0 to 80% |  | 
CCN(C(=O)CCN(CC(F)F)C(=O)n1ccnc1)c1cn(-c2cccnc2)nc1Cl [Compound F17, N-(3-((3-chloro-1-(pyridin-3-yl)-1H-pyrazol-4-yl)(ethyl)amino)-3-oxopropyl)-N-(2,2-difluoroethyl)-1H-imidazole-1-carboxamide] |  |  | 80 to 100% | 0 to 80%
CCN(C(=O)CCNC(=O)C1(C)CC1(F)F)c1cn(-c2cccnc2)nc1Cl (centres unmarked) [Compound F113, N-(3-((3-chloro-1-(pyridin-3-yl)-1H-pyrazol-4-yl)(ethyl)amino)-3-oxopropyl)-2,2-difluoro-1-methylcyclopropanecarboxamide] | 80 to 100% | 80 to 100% |  | 
CCN(C(=O)C1CN(C(=O)CCC(F)(F)F)C1)c1cn(-c2cccnc2)nc1Cl [FA15, N-(3-Chloro-1-(pyridin-3-yl)-1H-pyrazol-4-yl)-N-ethyl-1-(4,4,4-trifluorobutanoyl)azetidine-3-carboxamide] | 80 to 100% | 80 to 100% |  | 
CCN(C(=O)C(C)C/C=N/OCCC1CC1(F)F)c1cn(-c2cccnc2)nc1Cl (centres unmarked) [FA60, (E)-N-(3-Chloro-1-(pyridin-3-yl)-1H-pyrazol-4-yl)-4-((2-(2,2-difluorocyclopropyl)ethoxy)imino)-N-ethyl-2-methylbutanamide] | 80 to 100% | 80 to 100% |  | 
CCN(C(=O)CCNC(=O)OC(C)(C)C)c1cn(-c2cccnc2)nc1Cl [Compound F19, tert-Butyl (3-((3-chloro-1-(pyridin-3-yl)-1H-pyrazol-4-yl)(ethyl)amino)-3-oxopropyl)carbamate] | 80 to 100% | 80 to 100% |  | 
CCN(C(=O)CN1CCCC1=O)c1cn(-c2cccnc2)nc1Cl [Compound F124, N-(3-Chloro-1-(pyridin-3-yl)-1H-pyrazol-4-yl)-N-ethyl-2-(2-oxopyrrolidin-1-yl)acetamide] | 80 to 100% | 80 to 100% |  | 
CCN(C(=O)C1CCN(C(=O)CCC(F)(F)F)CC1)c1cn(-c2cccnc2)nc1Cl [FA6, N-(3-Chloro-1-(pyridin-3-yl)-1H-pyrazol-4-yl)-N-ethyl-1-(4,4,4-trifluorobutanoyl)piperidine-4-carboxamide] | 0 to 80% | 80 to 100% |  | 
CC(=O)CCC(=O)N(C)c1cn(-c2cccnc2)nc1C [FA69, N-methyl-N-(3-methyl-1-(pyridin-3-yl)-1H-pyrazol-4-yl)-4-oxopentanamide] | 80 to 100% | 0 to 80% |  | 
CCN(C(=O)C1CCN(C(=O)C(F)(F)F)CC1)c1cn(-c2cccnc2)nc1Cl [FA5, N-(3-Chloro-1-(pyridin-3-yl)-1H-pyrazol-4-yl)-N-ethyl-1-(2,2,2-trifluoroacetyl)piperidine-4-carboxamide] | 0 to 80% | 80 to 100% |  | 
CCN(C(=O)CCN1CCOC1=O)c1cn(-c2cccnc2)nc1Cl [Compound F69, N-(3-Chloro-1-(pyridin-3-yl)-1H-pyrazol-4-yl)-N-ethyl-3-(2-oxooxazolidin-3-yl)propanamide] | 80 to 100% | 80 to 100% |  | 
CCN(C(=O)CC/C(C)=N/OCC(F)(F)F)c1cn(-c2cccnc2)nc1Cl [Compound F51, (E/Z)-N-(3-Chloro-1-(pyridin-3-yl)-1H-pyrazol-4-yl)-N-ethyl-4-((2,2,2-trifluoroethoxy)imino) pentanamide] | 80 to 100% | 80 to 100% |  | 
CC(CCC(=O)N(C)c1cn(-c2cccnc2)nc1Cl)=NOC(C)C (mixture of isomers) [Compound F130, (E/Z)-N-(3-Chloro-1-(pyridin-3-yl)-1H-pyrazol-4-yl)-4-(isopropoxyimino)-N-methylpentanamide] | 80 to 100% | 80 to 100% |  | 
CN(C(=O)CCN1CCOC1=O)c1cn(-c2cccnc2)nc1Cl [Compound F31, N-(3-chloro-1-(pyridin-3-yl)-1H-pyrazol-4-yl)-N-methyl-3-(2-oxooxazolidin-3-yl)propanamide] | 80 to 100% | 80 to 100% |  | 
CCN(C(=O)C(C)(C)OC(C)=O)c1cn(-c2cccnc2)nc1Cl [FA73, 1-((3-Chloro-1-(pyridin-3-yl)-1H-pyrazol-4-yl)(ethyl)amino)-2-methyl-1-oxopropan-2-ylacetate] | 0 to 80% | 80 to 100% |  | 
CCN(C(=O)CCNC(=O)CC#N)c1cn(-c2cccnc2)nc1Cl [Compound F101, N-(3-Chloro-1-(pyridin-3-yl)-1H-pyrazol-4-yl)-3-(2-cyanoacetamido)-N-ethylpropanamide] | 80 to 100% | 0 to 80% |  | 

Compound | mortality at 200 ppm [1, 3] | mortality at 200 ppm [2, 4] | mortality at 200 ppm ([1]; foliar) | mortality at 200 ppm ([2]; foliar)
CCN(C(=O)CCN(CC(F)F)C(=O)CCC(F)(F)F)c1cn(-c2cccnc2)nc1Cl [Compound F89, N-(3-((3-Chloro-1-(pyridin-3-yl)-1H-pyrazol-4-yl)(ethyl)amino)-3-oxopropyl)-N-(2,2-difluoroethyl)-4,4,4-trifluorobutanamide] | 80 to 100% | 80 to 100% |  | 
CCN(C(=O)C1CCN(C(=O)CC(F)(F)F)CC1)c1cn(-c2cccnc2)nc1Cl [Compound P16, N-(3-chloro-1-(pyridin-3-yl)-1H-pyrazol-4-yl)-N-ethyl-1-(3,3,3-trifluoropropanoyl) piperidine-4-carboxamide] | 0 to 80% | 80 to 100% |  | 
CN(C(=O)[C@@H]1C=C[C@H](NC(=O)C(F)(F)F)C1)c1cn(-c2cccnc2)nc1Cl [Compound F126, (1S,4R)-N-(3-chloro-1-(pyridin-3-yl)-1H-pyrazol-4-yl)-N-methyl-4-(2,2,2-trifluoroacetamido)cyclopent-2-enecarboxamide] | 80 to 100% | 0 to 80% |  | 
CCN(C(=O)CCN1CCSC1=O)c1cn(-c2cccnc2)nc1Cl [Compound F88, N-(3-Chloro-1-(pyridin-3-yl)-1H-pyrazol-4-yl)-N-ethyl-3-(2-oxothiazolidin-3-yl)propanamide] | 80 to 100% | 0 to 80% |  | 
CCN(C(=O)CCC(=O)NCc1ccc(F)cc1)c1cn(-c2cccnc2)nc1Cl [Compound F80, N1-(3-Chloro-1-(pyridin-3-yl)-1H-pyrazol-4-yl)-N1-ethyl-N4-(4-fluorobenzyl)succinamide] | 80 to 100% | 0 to 80% |  | 
CN(C(=O)CN1CCOC1=O)c1cn(-c2cccnc2)nc1Cl [Compound F111, N-(3-Chloro-1-(pyridin-3-yl)-1H-pyrazol-4-yl)-N-methyl-2-(2-oxooxazolidin-3-yl)acetamide] | 80 to 100% | 80 to 100% |  | 
CCN(C(=O)CCC1CNC1=O)c1cn(-c2cccnc2)nc1Cl (centres unmarked) [Compound F50] | 80 to 100% | 0 to 80% |  | 
CN(C(=O)[C@H]1C=C[C@@H](NC(=O)OC(C)(C)C)C1)c1cn(-c2cccnc2)nc1Cl [Compound F116, tert-Butyl ((1S,4R)-4-((3-chloro-1-(pyridin-3-yl)-1H-pyrazol-4-yl)(methyl)carbamoyl)cyclopent-2-en-1-yl)carbamate] | 80 to 100% | 0 to 80% |  | 
CCOC(=O)N(C)CCC(=O)N(CC)c1cn(-c2cccnc2)nc1Cl [Compound F42, Ethyl (3-((3-chloro-1-(pyridin-3-yl)-1H-pyrazol-4-yl)(ethyl)amino)-3-oxopropyl)(methyl)carbamate] | 80 to 100% | 80 to 100% |  | 
CCN(C(=O)CCn1ccc(/C(C)=N/OC)n1)c1cn(-c2cccnc2)nc1Cl [FA1, (E/Z)-N-(3-Chloro-1-(pyridin-3-yl)-1H-pyrazol-4-yl)-N-ethyl-3-(3-(1-(methoxyimino)ethyl)-1H-pyrazol-1-yl)propanamide] | 80 to 100% | 0 to 80% |  | 
CCN(C(=O)CC/C(C)=N/OCc1ccc(OC(F)(F)F)cc1)c1cn(-c2cccnc2)nc1Cl [FA40, (E/Z)-N-(3-Chloro-1-(pyridin-3-yl)-1H-pyrazol-4-yl)-N-ethyl-4-(((4-(trifluoromethoxy)benzyl)oxy)imino)pentanamide] | 80 to 100% | 0 to 80% |  | 
CCN(C(=O)CCN1CCCC1=O)c1cn(-c2cccnc2)nc1Cl [Compound F39, N-(3-Chloro-1-(pyridin-3-yl)-1H-pyrazol-4-yl)-N-ethyl-3-(2-oxopyrrolidin-1-yl)propanamide] | 80 to 100% | 80 to 100% |  | 
CCN(C(=O)C(C)N(C)C(C)=O)c1cn(-c2cccnc2)nc1Cl (centres unmarked) [Compound F96, N-(3-Chloro-1-(pyridin-3-yl)-1H-pyrazol-4-yl)-N-ethyl-2-(N-methylacetamido)propanamide] | 80 to 100% | 80 to 100% |  | 
CCN(C(=O)C(C)OC(=O)N(C)OC)c1cn(-c2cccnc2)nc1Cl (centres unmarked) [Compound F16, 1-((3-Chloro-1-(pyridin-3-yl)-1H-pyrazol-4-yl)(ethyl)amino)-1-oxopropan-2-yl methoxy(methyl) carbamate] | 80 to 100% | 80 to 100% |  | 
CCN(C(=O)CC/C(=N\OCC1CC(F)(F)C1)c1cccs1)c1cn(-c2cccnc2)nc1Cl [FA30, (E)-N-(3-Chloro-1-(pyridin-3-yl)-1H-pyrazol-4-yl)-4-(((3,3-difluorocyclobutyl)methoxy)imino)-N-ethyl-4-(thiophen-2-yl)butanamide] | 0 to 80% | < 0% |  | 
